Like-named read-outs stand apart in the source and are kept apart here.
Experiments:
[1] = Safety pharmacology: effects on the central nervous system in rats; assay type: in vivo; details: single oral 100, 300 and 600 mg/kg
Experimental: Effects on the Respiratory System in Rats (Study no. YL18404). Four groups of eight male rats were given a single oral administration of STP0404 at doses of 100, 300 and 600 mg/kg. STP0404 was administered as a suspension in 0.5% MC in a volume of 10 mL/kg. […] Measurements were conducted at pre-dosing and 0.5, 1, 3, 6 12 and 24 hrs post-dosing, and respiratory rate, tidal volume and minute volume were investigated (INA Research, Japan). Effects on the Central Nervous System in Rats (Study no. YL18405). Four groups of six male rats were given a single oral administration of STP0404 at doses of 0 (vehicle), 100, 300 and 600 mg/kg. The test article was administered as a suspension in 0.5% MC in a volume of 10 mL/kg. […] Blinded observations were conducted pre-dosing and 0.5, 1, 3, 6, 12 and 24 hrs post-dosing on rats body temperature, pupil size, landing foot-splay and grip strength in functional observational battery. Effects on the Cardiovascular System in Dogs (Study no. YL18406). STP0404 at dose levels of 30, 60 and 90 mg/kg were administered orally (by capsules) to four male Beagle dogs in a design with 7-day intervals between doses. Heart rate, blood pressure (systolic, diastolic and mean) and electrocardiographic (ECG) parameters (PR, QT and QTc intervals and QRS duration) were evaluated at pre-dosing and 0.5, 1, 2, 4, 8 and 24 hrs post-dosing. […]

HIV-1 NL4-3 = assay: In vitro anti-viral assay in MT4 cells; assay type: cell-based
cytochrome P450 enzymes = assay: Cytochrome P450 inhibition assay in human liver microsomes; assay type: in vitro ADME; details: 8 different cytochrome P450 enzymes
Experimental: The final concentrations of test article in incubation system were 0, 0.15, 0.5, 1.5, 5, 15 and 50 μM. The inhibition of CYP1A2, 2B6, 2C8, 2C9, 2C19, 2D6, and 3A4 in human liver microsomes was measured as the percentage decrease in the activity of marker metabolite formation compared to non-inhibited controls (= 100% activity). The rate of formation of isoform-specific metabolites derived from marker substrates were measured by UPLC-MS/MS. The IC50 values were calculated with the metabolites decrease percentages of test samples to vehicle samples. All incubations were performed in triplicate (Pharmaron, China).

[2] = Four-week oral dose toxicology study in rats (GLP); parameters: species or system SD rats; details: Sprague-Dawley, rat, in vivo, read-out: no-observed-adverse-effect level (NOAEL)
Experimental: STP0404 was administered orally to 10 or 15 SD rats/sex/group at dose levels of 100, 300 and 600 mg/kg/day for 4 weeks to evaluate its potential toxicity. The reversibility of any effects was also assessed following a 2-week untreated recovery period. Control animals (15 animals/sex) received the vehicle, 0.5 w/v% methylcellulose solution, in a similar manner for comparison. In addition, plasma STP0404 concentrations were determined using TK satellite animals (3 animals/sex/group) to evaluate systemic exposure of the animals to the test article. (Study no. YL18402). STP0404 was administered orally as a capsule to 4 or 6 dogs/sex/group at dose levels of 30, 60 and 90 mg/kg/day for 4 weeks to evaluate its potential toxicity. Control animals (6 animals/sex) received empty gelatin capsules in a similar manner for comparison. The reversibility of any effects was also assessed following a 2-week untreated recovery period (2 animals/sex/group for the control and 90 mg/kg/day groups). In addition, plasma STP0404 concentrations were determined using all tested animals (including control group) to evaluate systemic exposure of the animals to the test article (Study no. YL18403). The test was performed according to the Standard Operating Procedures (SOP) the Good Laboratory Practice (GLP) system of the INA Research.

[3] = In vivo pharmacokinetics, summary over rats and dogs; parameters: species or system SD rats and beagle dogs; details: Sprague-Dawley (rat), beagle (dog), plasma, range over rats and dogs
Experimental: Study design: […]). Group 1 was dosed with STP0404 at 1 mg/kg by single intravenous administration. Groups 2 to 4 were dosed with STP0404 at 20, 40 and 80 mg/kg, respectively, by single oral administration. The vehicle used for IV study was DMSO: PEG400: […] Blood samples were collected at 0.0833, 0.25, 0.5, 1, 2, 4, 8, 12 (only for PO groups) and 24 hrs post-dose for Groups 1 to 4. STP0404 concentrations in plasma samples were determined by LC-MS/MS. Preclinical Dog pharmacokinetics study (Study no. 400751-2015020201-DPK): A total of 6 male Beagle dogs were divided into two groups (3 animals/group). Following single STP0404 2 mg/kg oral and intravenous administration to Beagle Dogs, STP0404 concentration was determined in plasma, and pharmacokinetic parameters were calculated. […] The concentrations of STP0404 in plasma were determined by using a LC/MS/MS method.

[4] = tested on: Salmonella typhimurium (TA100, TA1535, TA98, TA1537) and Escherichia coli (WP2uvrA); assay: Bacterial reverse mutation assay (GLP); details: five bacterial strains
Experimental: Bacterial reverse mutation assay (Study no. YL18407). The bacterial reverse mutation assay of STP0404 was performed in two conditions (with or without metabolic activation) for the dose range-finding test (doses of STP0404rangingfrom 2.29 to 5,000μg/plate) and the main test (doses of STP0404 ranging from 19.5 to 5,000 μg/plate) in comparison with negative control (DMSO) and active controls (sodium azide, 2-(2-furyl)-3-(5-nitro-2-furyl) acrylamide, 2-aminoanthracene, 9-aminoacridine hydrochloride). Salmonella typhimurium (TA100, TA1535) and Escherichia coli (WP2uvrA) were used for detection of base-pair substitutions. Salmonella typhimurium (TA98, TA1537) was used for detection of frameshift mutations. Chromosomal Aberration Test of STP0404 in Cultured Mammalian Cells (Study no. YL18408). Presence/absence of genotoxicity of STP0404 was determined using chromosomal aberration test carried out in CHL/IU cells. The test comprised a dose range-finding test and a main test. Micronucleus Study of STP0404 by oral administration in Rats (Study no. YL18409). STP0404 was administered orally to SD rats (3/group in preliminary test and 6/group in the main test) at dose levels of 500, 1000 and 2000 mg/kg/day once daily for 2 days in a two-test study (preliminary test and main test) to investigate the genotoxicity profile of STP0404. […] Bone marrow smear slides were evaluated (INA Research, Japan).

With `Cc1nc2c(c(C)c(C)n2Cc2cnn(C)c2)c(-c2ccc(Cl)cc2)c1[C@H](OC(C)(C)C)C(=O)O` [STP0404] the “safety pharmacology concerns, central nervous system” value [1] was “did not induce any safety pharmacology concerns”, the “TI (TC50 / IC50)” value (HIV-1 NL4-3; HIV-1 NL4-3 / MT4 cells) was > 6,020 and the IC50 (HIV-1 NL4-3; Human immunodeficiency virus 1, NL43, MT4) was 1.66 ± 0.32 nM. The “inhibition of cytochrome P450 enzymes (in words)” value (cytochrome P450 enzymes) was “low (high μM) or no inhibition (NI)”, the NOAEL at 4 weeks ([2]; female rats) was 600 mg/kg/day and the NOAEL at 4 weeks ([2]; male rats) was 300 mg/kg/day. The half-life ([3]; intravenous, oral, read-out: half-life (T1/2)) was 3 to 7 h, the bioavailability ([3]; po, read-out: oral bioavailability (Ft)) was 50 to 93% and the gene mutation-inducing potential [4] was “lacked”.
